Assays:
[1] = target: T1, EGFR mutant Del19 (E746-A750) (Homo sapiens, UniProt P00533, DEL746-750); experiment: Kinase inhibition assay, EGFR del E746-A750; type: biochemical; settings: read-out: EGFR mutants Del19 (E746-A750);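 further: truncated human EGFR mutant kinase, two-hour preincubation with compound, then one-hour reaction with ATP and ULight-PolyGT peptide, LANCE Europium-antibody phosphorylation readout, IC50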
T1 construct: truncated human JAK3, EGFR mutants such as del E746-A750; purchased Carna Biosciences
T1 sequence (P00533 with tags, fused parts or gaps DEL746-750 limits assumed): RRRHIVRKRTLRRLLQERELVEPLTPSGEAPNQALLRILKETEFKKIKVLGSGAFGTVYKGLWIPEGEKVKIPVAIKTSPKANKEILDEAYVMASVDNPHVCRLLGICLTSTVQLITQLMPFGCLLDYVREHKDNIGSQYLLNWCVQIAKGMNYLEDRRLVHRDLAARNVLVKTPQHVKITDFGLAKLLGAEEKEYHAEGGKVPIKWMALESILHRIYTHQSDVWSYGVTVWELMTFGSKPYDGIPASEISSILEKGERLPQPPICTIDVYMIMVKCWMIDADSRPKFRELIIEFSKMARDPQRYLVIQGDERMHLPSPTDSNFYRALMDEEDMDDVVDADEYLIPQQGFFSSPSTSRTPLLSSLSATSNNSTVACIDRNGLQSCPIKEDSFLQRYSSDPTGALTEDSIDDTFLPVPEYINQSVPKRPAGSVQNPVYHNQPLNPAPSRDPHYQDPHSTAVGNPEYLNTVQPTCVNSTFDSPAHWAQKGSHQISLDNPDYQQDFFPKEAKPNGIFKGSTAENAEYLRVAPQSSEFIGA

H2073 (EGFR wildtype) = experiment: Cell viability assay, H2073; type: cell-based; settings: NCI-H2073; cellular potency; 72-hour incubation; ATPLite;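 further: NSCLC cell line whose survival relies on wildtype EGFR, treated with serially diluted compound, cytotoxic effect judged from remaining cell viability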
KDR = target: T2, KDR (Homo sapiens, UniProt P35968); experiment: Kinase inhibition assay, KDR; type: biochemical; settings: biochemical potency;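 further: purified full-length human KDR, 30 min preincubation with compound, then 1 h reaction with ATP and Ulight-Jak1 peptide substrate, phosphorylation read by Lance Europium antibody detection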
T2 construct: Purified human, full-length SYK, KDR; purchased Carna Biosciences
T2 sequence (P35968 20-1356): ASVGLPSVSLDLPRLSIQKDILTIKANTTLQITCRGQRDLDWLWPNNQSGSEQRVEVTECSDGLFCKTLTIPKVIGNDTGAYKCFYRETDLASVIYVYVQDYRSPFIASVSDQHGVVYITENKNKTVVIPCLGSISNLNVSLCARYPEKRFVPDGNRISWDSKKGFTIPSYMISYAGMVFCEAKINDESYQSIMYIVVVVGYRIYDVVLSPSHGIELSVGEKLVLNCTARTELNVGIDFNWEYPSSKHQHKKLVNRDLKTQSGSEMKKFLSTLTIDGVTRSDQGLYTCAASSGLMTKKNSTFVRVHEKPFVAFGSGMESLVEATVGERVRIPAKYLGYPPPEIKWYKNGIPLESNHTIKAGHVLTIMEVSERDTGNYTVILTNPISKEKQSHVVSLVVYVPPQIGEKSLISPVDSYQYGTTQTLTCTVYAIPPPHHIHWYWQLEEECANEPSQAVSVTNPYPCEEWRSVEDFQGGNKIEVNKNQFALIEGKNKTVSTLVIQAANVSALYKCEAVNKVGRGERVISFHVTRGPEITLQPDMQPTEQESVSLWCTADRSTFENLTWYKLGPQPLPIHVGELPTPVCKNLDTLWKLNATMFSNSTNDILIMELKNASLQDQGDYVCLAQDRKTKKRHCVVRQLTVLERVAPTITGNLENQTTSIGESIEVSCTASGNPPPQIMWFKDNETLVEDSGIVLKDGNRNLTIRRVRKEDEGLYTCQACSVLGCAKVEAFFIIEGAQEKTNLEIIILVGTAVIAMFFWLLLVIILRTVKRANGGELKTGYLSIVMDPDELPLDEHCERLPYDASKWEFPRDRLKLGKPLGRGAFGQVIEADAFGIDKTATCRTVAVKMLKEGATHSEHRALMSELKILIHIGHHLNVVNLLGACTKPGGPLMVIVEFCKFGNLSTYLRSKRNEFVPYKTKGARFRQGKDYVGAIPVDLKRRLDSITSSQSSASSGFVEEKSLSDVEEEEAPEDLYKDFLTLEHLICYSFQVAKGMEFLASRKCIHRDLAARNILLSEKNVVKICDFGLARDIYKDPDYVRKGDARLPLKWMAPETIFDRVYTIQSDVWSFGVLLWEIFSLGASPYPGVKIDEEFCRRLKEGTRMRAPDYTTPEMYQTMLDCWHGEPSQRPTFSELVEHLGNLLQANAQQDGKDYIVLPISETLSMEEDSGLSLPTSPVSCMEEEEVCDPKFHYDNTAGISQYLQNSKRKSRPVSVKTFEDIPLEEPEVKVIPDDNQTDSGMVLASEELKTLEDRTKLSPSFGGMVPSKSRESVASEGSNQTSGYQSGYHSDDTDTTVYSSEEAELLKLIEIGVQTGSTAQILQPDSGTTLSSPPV

JAK3 = target: T3, JAK3 (Homo sapiens, UniProt P52333); experiment: Kinase inhibition assay, JAK3; settings: biochemical potency;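 further: IC50 against purified truncated human JAK3 preincubated with compound, then reacted with ATP and ULight-Jak1 peptide, phosphorylation read by Europium-labeled antibody LANCE detection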
T3 construct: EGFR and JAK3 (JH1domain-catalytic) kinases, and mutant forms thereof; purchased Carna Biosciences
T3 sequence (P52333 822-1111 limits assumed): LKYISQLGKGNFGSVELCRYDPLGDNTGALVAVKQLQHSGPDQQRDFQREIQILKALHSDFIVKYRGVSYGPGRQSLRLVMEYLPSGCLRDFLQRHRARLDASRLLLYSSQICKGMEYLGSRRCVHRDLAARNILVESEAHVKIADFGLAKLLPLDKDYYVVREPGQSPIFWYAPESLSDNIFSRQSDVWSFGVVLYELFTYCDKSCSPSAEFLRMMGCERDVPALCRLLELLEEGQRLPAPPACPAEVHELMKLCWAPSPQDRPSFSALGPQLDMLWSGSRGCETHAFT

EGFR mutant Del19/T790M = target: T4, EGFR mutant Del19/T790M (Homo sapiens, UniProt P00533, DEL746-750/T790M); experiment: Kinase inhibition assay, EGFR del E746-A750/T790M; type: biochemical; settings: read-out: EGFR mutants Del19/T790M
T4 construct: truncated human JAK3, EGFR mutants such as del E746-A750; purchased Carna Biosciences
T4 sequence (P00533 with tags, fused parts or gaps DEL746-750/T790M limits assumed): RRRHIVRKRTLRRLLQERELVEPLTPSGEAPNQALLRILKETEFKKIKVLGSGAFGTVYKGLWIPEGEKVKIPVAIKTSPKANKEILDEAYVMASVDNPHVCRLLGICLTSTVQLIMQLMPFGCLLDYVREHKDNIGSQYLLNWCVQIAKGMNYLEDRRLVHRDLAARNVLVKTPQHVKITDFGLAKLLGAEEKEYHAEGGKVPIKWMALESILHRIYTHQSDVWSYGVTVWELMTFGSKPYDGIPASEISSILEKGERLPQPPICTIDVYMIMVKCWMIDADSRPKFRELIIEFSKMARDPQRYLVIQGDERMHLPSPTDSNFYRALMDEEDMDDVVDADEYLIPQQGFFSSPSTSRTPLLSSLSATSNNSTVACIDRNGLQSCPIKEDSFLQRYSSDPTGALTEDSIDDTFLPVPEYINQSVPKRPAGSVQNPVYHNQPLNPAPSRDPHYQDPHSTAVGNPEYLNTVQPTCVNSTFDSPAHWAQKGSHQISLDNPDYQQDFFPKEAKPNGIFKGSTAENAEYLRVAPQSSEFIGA

EGFR mutant T790M = target: T5, EGFR mutant T790M (Homo sapiens, UniProt P00533, T790M); experiment: Kinase inhibition assay, EGFR mutant T790M; settings: biochemical potency;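 further: truncated human EGFR mutant enzyme preincubated two hours with compound, then ATP plus ULight-PolyGT peptide for one hour, Europium-labeled antibody LANCE detection, IC50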
T5 construct: truncated human JAK3, EGFR mutants such as del E746-A750; purchased Carna Biosciences
T5 sequence (P00533 669-1210 T790M limits assumed): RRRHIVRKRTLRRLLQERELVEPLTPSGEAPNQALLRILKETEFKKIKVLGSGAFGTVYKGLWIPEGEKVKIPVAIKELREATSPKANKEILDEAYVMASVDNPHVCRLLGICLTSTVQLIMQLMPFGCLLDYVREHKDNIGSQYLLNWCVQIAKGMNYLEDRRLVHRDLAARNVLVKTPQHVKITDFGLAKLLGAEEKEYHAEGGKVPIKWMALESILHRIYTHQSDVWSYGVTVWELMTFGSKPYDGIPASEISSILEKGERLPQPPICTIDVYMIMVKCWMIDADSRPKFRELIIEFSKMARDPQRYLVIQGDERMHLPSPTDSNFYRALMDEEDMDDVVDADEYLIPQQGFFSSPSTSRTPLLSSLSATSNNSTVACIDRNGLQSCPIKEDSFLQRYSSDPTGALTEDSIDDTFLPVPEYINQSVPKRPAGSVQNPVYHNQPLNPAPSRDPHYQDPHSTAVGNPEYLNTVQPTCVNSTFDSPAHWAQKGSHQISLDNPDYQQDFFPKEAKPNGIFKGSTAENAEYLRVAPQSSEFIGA

EGFR mutant L858R/T790M = target: T6, EGFR mutant L858R/T790M (Homo sapiens, UniProt P00533, L858R/T790M); experiment: Kinase inhibition assay, EGFR L858R/T790M; type: biochemical; settings: read-out: EGFR mutants L858R/T790M;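 further: truncated human enzyme preincubated two hours with compound, then one hour with one millimolar ATP and ULight-PolyGT peptide, Europium-labeled antibody detection, IC50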
T6 construct: truncated human JAK3, EGFR mutants such as del E746-A750; purchased Carna Biosciences
T6 sequence (P00533 669-1210 T790M/L858R limits assumed): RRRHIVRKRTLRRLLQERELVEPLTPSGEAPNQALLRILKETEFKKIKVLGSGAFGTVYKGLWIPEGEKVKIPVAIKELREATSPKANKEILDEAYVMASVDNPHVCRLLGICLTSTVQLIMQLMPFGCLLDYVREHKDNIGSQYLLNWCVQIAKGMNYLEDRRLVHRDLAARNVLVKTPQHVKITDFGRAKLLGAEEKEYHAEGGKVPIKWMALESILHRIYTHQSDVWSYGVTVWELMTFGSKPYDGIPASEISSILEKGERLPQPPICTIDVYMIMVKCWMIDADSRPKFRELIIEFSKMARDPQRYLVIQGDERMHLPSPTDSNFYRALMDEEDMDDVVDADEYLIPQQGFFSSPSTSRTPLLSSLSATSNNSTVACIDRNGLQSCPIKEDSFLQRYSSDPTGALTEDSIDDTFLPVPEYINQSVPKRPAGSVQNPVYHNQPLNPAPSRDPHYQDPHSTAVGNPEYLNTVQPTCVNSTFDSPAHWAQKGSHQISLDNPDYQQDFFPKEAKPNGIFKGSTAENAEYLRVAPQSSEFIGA

SYK = target: T7, SYK (Homo sapiens, UniProt P43405); experiment: Kinase inhibition assay, SYK; type: biochemical; settings: biochemical potency;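 further: purified full-length human SYK pre-incubated 30 min with compound, then ULight-TK peptide phosphorylation for 1 h, detected with Europium-labeled antibody in Lance buffer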
T7 construct: Purified human, full-length SYK, KDR; purchased Carna Biosciences

EGFR mutant L858R = target: T8, EGFR mutant L858R (Homo sapiens, UniProt P00533, L858R); experiment: Kinase inhibition assay, EGFR L858R; type: biochemical; settings: read-out: EGFR mutants L858R;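 further: truncated human EGFR L858R kinase with compound preincubation, ULight-PolyGT peptide phosphorylation read by Europium-antibody Lance detection, IC50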
T8 construct: truncated human JAK3, EGFR mutants such as del E746-A750; purchased Carna Biosciences
T8 sequence (P00533 669-1210 L858R limits assumed): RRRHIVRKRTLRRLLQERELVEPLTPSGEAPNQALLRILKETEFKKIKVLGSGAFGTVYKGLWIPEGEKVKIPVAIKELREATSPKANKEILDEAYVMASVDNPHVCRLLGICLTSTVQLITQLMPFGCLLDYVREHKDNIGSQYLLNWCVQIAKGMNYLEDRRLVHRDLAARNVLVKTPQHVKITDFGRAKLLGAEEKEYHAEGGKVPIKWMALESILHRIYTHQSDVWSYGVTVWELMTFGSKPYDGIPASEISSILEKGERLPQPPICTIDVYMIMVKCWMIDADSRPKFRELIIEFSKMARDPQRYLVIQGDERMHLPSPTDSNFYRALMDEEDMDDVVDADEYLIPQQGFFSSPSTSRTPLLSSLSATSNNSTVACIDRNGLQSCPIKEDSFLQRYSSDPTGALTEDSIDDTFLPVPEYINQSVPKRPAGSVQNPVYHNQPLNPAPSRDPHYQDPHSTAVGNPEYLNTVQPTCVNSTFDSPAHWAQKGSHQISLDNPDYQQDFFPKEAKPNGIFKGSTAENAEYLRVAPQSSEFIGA

[2] = tested on: H1975 (EGFR L858R/T790M mutant); experiment: Cell viability assay, H1975; type: cell-based; settings: for IC50: Homo sapiens, NCI-H1975, cellular potency, 72-hour incubation, ATPLite, read-out: EGFR Mutants H1975; for Selectivity over wildtype, Wildtype vs mutant H2073/H1975 (fold): cellular potency ratio;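 on all read-outs here: NSCLC cells whose survival relies on EGFR L858R/T790M, exposed 72 h to serially diluted compound, ATP-based viability readout, with the H2073 line (wildtype EGFR dependent) as wildtype comparator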
[3] = tested on: PC9 (EGFR del E746-A750 mutant); experiment: Cell viability assay, PC9; type: cell-based; settings: for Selectivity over wildtype, Wildtype vs mutant H2073/PC9 (fold): cellular potency ratio; for IC50: cellular potency, 72-hour incubation, ATPLite, read-out: EGFR Mutants PC9;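 on all read-outs here: NSCLC PC9 cells, whose viability relies on EGFR del E746-A750, exposed to serially diluted compound for 72 h at 37 °C, ATPLite read-out, IC50, H2073 as EGFR wildtype line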

Structure (SMILES)	IC50 [1]	IC50 (H2073 (EGFR wildtype))	IC50 (KDR)	IC50 (JAK3)	IC50 (EGFR mutant Del19/T790M)	IC50 (EGFR mutant T790M)	IC50 (EGFR mutant L858R/T790M)	IC50 (SYK)	IC50 (EGFR mutant L858R)	IC50 [2]	Selectivity over wildtype, Wildtype vs mutant H2073/H1975 (fold) [2]	Selectivity over wildtype, Wildtype vs mutant H2073/PC9 (fold) [3]	IC50 [3]
C=CC(=O)Nc1cc(Nc2ncc(C)c(-n3cc(CN4CCC4)c(C)n3)n2)c(OC)cc1N1CCOCC1 [Compound 76, N-(5-(4-(4-(azetidin-1-ylmethyl)-3-methyl-1H-pyrazol-1-yl)-5-methylpyrimidin-2-ylamino)-4-methoxy-2-morpholinophenyl)acrylamide]	< 20 nM	> 1000 nM	> 1000 nM	< 20 nM	< 20 nM	< 20 nM	< 20 nM	201 to 1000 nM	< 20 nM	20 to 200 nM	101-200 fold	101-200 fold	20 to 200 nM
C=CC(=O)Nc1cc(Nc2nccc(-n3cc(CN(C)C)c(C)n3)n2)c(OC)cc1N1CCN(CCF)CC1 [Compound 79, N-(5-(4-(4-((dimethylamino)methyl)-3-methyl-1H-pyrazol-1-yl)pyrimidin-2-ylamino)-2-(4-(2-fluoroethyl)piperazin-1-yl)-4-methoxyphenyl)acrylamide]	< 20 nM	> 1000 nM	> 1000 nM	< 20 nM	< 20 nM	< 20 nM	< 20 nM	201 to 1000 nM	< 20 nM	20 to 200 nM	101-200 fold	101-200 fold	20 to 200 nM
C=CC(=O)Nc1cc(Nc2ncc(C)c(-n3cc(CN4CCC4)c(C4CC4)n3)n2)c(OC)cc1N1CCOCC1 [Compound 123, N-(5-(4-(4-(azetidin-1-ylmethyl)-3-cyclopropyl-1H-pyrazol-1-yl)-5-methylpyrimidin-2-ylamino)-4-methoxy-2-morpholinophenyl)acrylamide]	< 20 nM	> 1000 nM	> 1000 nM	< 20 nM	< 20 nM	< 20 nM	< 20 nM	201 to 1000 nM	< 20 nM	< 20 nM	>200 fold	>200 fold	< 20 nM
C=CC(=O)Nc1cc(Nc2ncc(C)c(-n3cc(CN(C)C)c(C(C)C)n3)n2)c(OC)cc1N1CCOCC1 [Compound 124, N-(5-(4-(4-((dimethylamino)methyl)-3-isopropyl-1H-pyrazol-1-yl)-5-methylpyrimidin-2-ylamino)-4-methoxy-2-morpholinophenyl)acrylamide]	< 20 nM	> 1000 nM	> 1000 nM	< 20 nM	< 20 nM	< 20 nM	< 20 nM	20 to 200 nM	< 20 nM	< 20 nM	>200 fold	>200 fold	< 20 nM

Source: USRE50528E1, “Compounds and compositions for modulating EGFR mutant kinase activities” (Yuhan Corporation, priority 2014, dated 2025)
